The clearance is the rate of elimination divided by the concentration. The low end stands for inefficient removal, the high end for efficient removal.

The text below walks through data of ChEMBL document CHEMBL2390944, “Discovery and optimization of arylsulfonyl 3-(pyridin-2-yloxy)anilines as novel GPR119 agonists” (Bioorg Med Chem Lett, 2013).

A short description of one series: in vitro. Particulars: human, liver microsomes. (In general: Liver microsomes are vesicles of endoplasmic reticulum, rich in cytochrome P450 enzymes.)
Series [1] can be described thus: Metabolic stability in mouse liver microsomes assessed as compound turnover after 30 mins. The conditions noted are these: read-out: Drug metabolism. In kind it is ADME, Microsome.
A further series in a line: in vivo. Particulars: rat, iv, 0.5 mg/kg.

Consider `Cc1ccc(S(=O)(=O)Nc2cccc(Oc3nc(C)cc(C)c3C#N)c2)cc1`, for which the values for the metabolised at 0.5 h (in “in vitro”; in series [1]) were 72% and 100%, respectively.

In the case of `N#Cc1c(C(F)(F)F)cc(C2CC2)nc1Oc1cccc(NS(=O)(=O)c2ccc(Cl)cc2)c1`, the clearance in “in vivo” is 0.19 L/h/kg. The molecule also came in with a metabolised at 0.5 h in “in vitro” of 13%.
